Laboratory results published in patent US9776981B2, “Hepatitis C virus inhibitors” (BRISTOL-MYERS SQUIBB COMPANY, priority 2009, dated 2017).
pEC50: −log10 of the molar value. Where two headings read alike, the source gives them in different places.

System: HCV 1b genotype (HCV-neo replicon cells)
Assay: HCV Replicon assay (HCV 1b genotype)
Type: cell-based
Conditions: Hepatitis C virus, HCV 1b genotype replicon
Experimental: An HCV Replicon assay was utilized in the present disclosure, and was prepared, conducted and validated as described in commonly owned PCT/US2006/022197 and in O'Boyle et al., Antimicrob. Agents Chemother., 49(4):1346-1353 (April 2005). Assay methods incorporating luciferase reporters have also been used as described (Apath.com).
HCV-neo replicon cells and replicon cells containing resistance substitutions in the NS5A region were used to test the currently described family of compounds. The compounds were determined to have differing degrees of reduced inhibitory activity on cells containing mutations vs. the corresponding inhibitory potency against wild-type cells. Thus, the compounds of the present disclosure can be effective in inhibiting the function of the HCV NS5A protein and are understood to be as effective in combinations as previously described in application PCT/US2006/022197 and commonly owned WO 04/014852. It should be understood that the compounds of the present disclosure can inhibit multiple genotypes of HCV. […] In one embodiment, compounds of the present disclosure are inhibitory versus 1a, 1b, 2a, 2b, 3a, 4a, and 5a genotypes.

[1] = class symbol, read-out: Range (EC50 against HCV 1b)

SMILES	pEC50 [1]	pEC50 (read-out: EC50)
COC(=O)N[C@H](C(=O)N1[C@@H]2C[C@@H]2C[C@H]1c1ncc(-c2ccc3nc(-c4ccc5nc([C@@H]6C[C@H]7C[C@H]7N6C(=O)[C@@H](NC(=O)OC)C6CCOCC6)[nH]c5c4)cnc3c2)[nH]1)C1CCOCC1 [Example 53, Methyl ((1S)-2-((1R,3S,5R)-3-(4-(2-(2-((1R,3S,5R)-2-((2S)-2-((methoxycarbonyl)amino)-2-(tetrahydro-2H-pyran-4-yl)acetyl)-2-azabicyclo[3.1.0]hex-3-yl)-1H-benzimidazol-5-yl)-6-quinoxalinyl)-1H-imidazol-2-yl)-2-azabicyclo[3.1.0]hex-2-yl)-2-oxo-1-(tetrahydro-2H-pyran-4-yl)ethyl)carbamate]	6.00 to 9.00	8.74
COC(=O)N[C@@H](C(=O)N[C@H](c1nc(-c2ccc3cc(-c4ccc(-c5cnc([C@@H](NC(=O)[C@H](NC(=O)OC)C(C)C)C(C)(C)C)[nH]5)cc4)ccc3c2)c[nH]1)C(C)(C)C)C(C)C [Example 148, Methyl ((1R)-1-(((1S)-1-(4-(4-(6-(2-((1S)-1-(((2R)-2-((methoxycarbonyl)amino)-3-methylbutanoyl)amino)-2,2-dimethylpropyl)-1H-imidazol-4-yl)-2-naphthyl)phenyl)-1H-imidazol-2-yl)-2,2-dimethylpropyl)carbamoyl)-2-methylpropyl)carbamate]	6.00 to 9.00	8.07
COC(=O)N[C@H](C(=O)N1[C@@H]2C[C@@H]2C[C@H]1c1ncc(-c2ccc3nc(-c4ccc5nc([C@@H]6C[C@H]7C[C@H]7N6C(=O)[C@@H](NC(=O)OC)C(C)C)[nH]c5c4)cnc3c2)[nH]1)C(C)C [Example 52, Methyl ((1S)-1-(((1R,3S,5R)-3-(4-(2-(2-((1R,3S,5R)-2-((2S)-2-((methoxycarbonyl)amino)-3-methylbutanoyl)-2-azabicyclo[3.1.0]hex-3-yl)-1H-benzimidazol-5-yl)-6-quinoxalinyl)-1H-imidazol-2-yl)-2-azabicyclo[3.1.0]hex-2-yl)carbonyl)-2-methylpropyl)carbamate]		11.23
COC(=O)N[C@H](C(=O)N1C[C@@H](C)C[C@H]1c1ncc(-c2ccc(-c3ccc4cc(-c5[nH]c([C@@H]6C[C@H](C)CN6C(=O)[C@@H](NC(=O)OC)C(C)C)nc5Cl)ccc4c3)cc2)[nH]1)C(C)C [Example 143, Methyl ((1S)-1-(((2S,4S)-2-(4-(4-(6-(4-chloro-2-((2S,4S)-1-((2S)-2-((methoxycarbonyl)amino)-3-methylbutanoyl)-4-methyl-2-pyrrolidinyl)-1H-imidazol-5-yl)-2-naphthyl)phenyl)-1H-imidazol-2-yl)-4-methyl-1-pyrrolidinyl)carbonyl)-2-methylpropyl)carbamate]		11.98
CC(C)CC(=O)N[C@H](c1nc(-c2ccc(-c3ccc4cc(-c5c[nH]c([C@@H](NC(=O)CC(C)C)C(C)(C)C)n5)ccc4c3)cc2)c[nH]1)C(C)(C)C [Example 150, N-((1S)-1-(4-(4-(6-(2-((1S)-2,2-dimethyl-1-((3-methylbutanoyl)amino)propyl)-1H-imidazol-4-yl)-2-naphthyl)phenyl)-1H-imidazol-2-yl)-2,2-dimethylpropyl)-3-methylbutanamide]	6.00 to 9.00	
COC(=O)N[C@H](C(=O)N[C@H](c1nc(-c2ccc(-c3ccc4cc(-c5c[nH]c([C@@H](NC(=O)[C@@H](NC(=O)OC)C(C)C)C(C)(C)C)n5)ccc4c3)cc2)c[nH]1)C(C)(C)C)C(C)C [Example 149, methyl ((1S)-1-(((1S)-1-(4-(4-(6-(2-((1S)-1-(((2S)-2-((methoxycarbonyl)amino)-3-methylbutanoyl)amino)-2,2-dimethylpropyl)-1H-imidazol-4-yl)-2-naphthyl)phenyl)-1H-imidazol-2-yl)-2,2-dimethylpropyl)carbamoyl)-2-methylpropyl)carbamate]	9.00 to 11.00	
COC(=O)N[C@H](C(=O)N1C[C@@H](C)C[C@H]1c1ncc(-c2ccc(-c3ccc4cc(-c5[nH]c([C@@H]6C[C@H](C)CN6C(=O)[C@@H](NC(=O)OC)C6CCOCC6)nc5Cl)ccc4c3)cc2)[nH]1)C1CCOCC1 [Example 144, Methyl ((1S)-2-((2S,4S)-2-(4-(4-(6-(4-chloro-2-((2S,4S)-1-((2S)-2-((methoxycarbonyl)amino)-2-(tetrahydro-2H-pyran-4-yl)acetyl)-4-methyl-2-pyrrolidinyl)-1H-imidazol-5-yl)-2-naphthyl)phenyl)-1H-imidazol-2-yl)-4-methyl-1-pyrrolidinyl)-2-oxo-1-(tetrahydro-2H-pyran-4-yl)ethyl)carbamate]	9.00 to 11.00	10.75
COC(=O)N[C@H](C(=O)N1CCC[C@H]1c1nc2ccc(-c3ccc4cc(-c5ccc6nc([C@@H]7CCCN7C(=O)[C@@H](NC(=O)OC)C7CC7)[nH]c6c5)ccc4c3)cc2[nH]1)C1CC1 [Example 11, Dimethyl (2,6-naphthalenediylbis(1H-benzimidazole-5,2-diyl(2S)-2,1-pyrrolidinediyl((1S)-1-cyclopropyl-2-oxo-2,1-ethanediyl)))biscarbamate]	9.00 to 11.00	10.74
COC(=O)N[C@H](C(=O)N1[C@@H]2C[C@@H]2C[C@H]1c1ncc(-c2cnc3cc(-c4ccc5nc([C@@H]6C[C@H]7C[C@H]7N6C(=O)[C@@H](NC(=O)OC)C6CCOCC6)[nH]c5c4)ccc3n2)[nH]1)C1CCOCC1 [Example 58, Methyl ((1S)-2-((1R,3S,5R)-3-(4-(6-(2-((1R,3S,5R)-2-((2S)-2-((methoxycarbonyl)amino)-2-(tetrahydro-2H-pyran-4-yl)acetyl)-2-azabicyclo[3.1.0]hex-3-yl)-1H-benzimidazol-5-yl)-2-quinoxalinyl)-1H-imidazol-2-yl)-2-azabicyclo[3.1.0]hex-2-yl)-2-oxo-1-(tetrahydro-2H-pyran-4-yl)ethyl)carbamate]	9.00 to 11.00	9.07
